Consider two molecules from patent US10653693B2, “PRMT5 inhibitors and uses thereof” (Epizyme, Inc., priority 2014, dated 2020).

Where two headings read alike, the source gives them in different places.

One test concerns Granta-519. As to the kind of experiment: Gene expression of apoptotic response genes (real time PCR). The format is cell-based, Human. Particulars: day 4. How it is done: (§1) The fold change was calculated using the Comparative Ct method ([…]). N=1. A previous RNA Seq study in MCL cell lines using a tool compound with the same cellular potency as Formula B identified expression changes in a number of genes involved in the apoptotic response (unpublished results). These genes included the Bcl-2 family members PUMA and BAX, well characterized drivers of the apoptotic response. Other genes implicated in the apoptotic response were also identified and include PHLDA3, TP53I3, p21, APOBEC3H, TRIM22, and FAS.
(Real-time PCR tracks product formation cycle by cycle.)

The test system of the next test is Mino cells. Described as above. Particulars: day 4. The format is cell-based, Human. As to the method:
as §1

For another test, the system named is Jeko-1 cells. The test is described as above. The format is cell-based, Human. Particulars: day 4. As to the method: as §1
Test [1] has as its system MCL cell lines (Z-138, Maver-1, Mino, Jeko-1, Granta-519). Kind of test: Gene expression results from MCL cell lines (Table 4). The format is cell-based, Human. Particulars: Day 4. How it is done:
The fold change was calculated using the Comparative Ct method ([…]). N=1. A previous RNA Seq study in MCL cell lines using a tool compound with the same cellular potency as Formula B identified expression changes in a number of genes involved in the apoptotic response (unpublished results). These genes included the Bcl-2 family members PUMA and BAX, well characterized drivers of the apoptotic response. Other genes implicated in the apoptotic response were also identified and include PHLDA3, TP53I3, p21, APOBEC3H, TRIM22, and FAS. […] [table]

The test system of another test is Jeko-1. Kind of test: Long-term proliferation (LTP) assay. To be noted: Homo sapiens. The format is cell-based.
Test [2] relates to MDM4 splicing in Z138 cells. Kind of test: MDM4 splicing analysis (PCR). The format is cell-based, Human. Particulars: Z138 mantle cell lymphoma cells. As to the method:
Z138 cells were seeded in 10 cm tissue culture dishes at a density of approximately 3×10^6 cells per dish in a volume of 10 mL IMDM+10% horse serum media. Cells were treated with 200 nM or 1 μM of compound at 0.5% DMSO for 1, 2, or 3 days. Cell pellets were harvested by washing once with PBS, […], centrifuging at 1000×g for 5 minutes, then storing at −80° C. until ready to process.
RNA was extracted from cell pellets. First, pellets were thawed on ice and then quickly resuspended in 500 μL Trizol reagent. Samples were then incubated 2-3 minutes at room temperature and vortexed for 30 sec to completely homogenize the lysate. 50 μL of water and 50 μL of chloroform were added to each Trizol-cell mixture, then each sample was vortexed for 30 sec to mix completely. Samples were loaded onto MaXtract High Density tubes and spun at 14,000 RPM for 5 minutes. The clear supernatant (aqueous phase) from each tube was transferred to a new 2 mL tube and 2× volume of freshly prepared 70% ethanol was added to each sample. Samples were loaded onto RNeasy spin columns (part of Qiagen RNeasy Mini kit). Columns were centrifuged at 9000×g for 15 sec and flow-through was discarded. 350 μL Buffer RW1 was added to each column and samples were centrifuged at […] for 15 sec and flow-through was discarded. […] RNA concentration was analyzed on a Nanodrop. […]

The mark [3] stands for this setting: tested: Z-138, Maver-1, Granta-519, Jeko-1.

As usually defined, the IC50 is the point on the concentration scale where inhibition reaches its midpoint. In general, IC90 refers to the concentration needed for an effect of 90%. In the case of `CC(=O)N1CCC(Nc2cc(C(=O)NC[C@H](O)CN3CCc4ccccc4C3)ccn2)CC1` [Formula B], in the test with Granta-519, the “gene expression for p21, TRIM22, and FAS” value is “only modest increases”; the “increase in the gene PHLDA3” value is listed as ≤ 10 fold. Also, the “effects in any of the genes tested” value in the test with Mino cells was “did not show any significant effects”. Further, the “effects in any of the genes tested” value in the test with Jeko-1 cells is “did not show any significant effects”. Also, the “Cell Lines Showing Dose Dependent Changes: P21” value in test [1] (tested: Z-138, Granta-519, Jeko-1) is reported as “Z-138, Granta-519”. Moreover, in test [1] (tested: Z-138, Maver-1), the “Cell Lines Showing Dose Dependent Changes: BAX” value was “Z-138, Maver-1”. For the same molecule, in test [1] (setting [3]), the “Cell Lines Showing Dose Dependent Changes: FAS” value is “Granta-519 (slight)” and the “Cell Lines Showing Dose Dependent Changes: TRIM22” value is reported as “Granta-519 (slight)”. Moreover, the “Cell Lines Showing Dose Dependent Changes: PUMA” value in test [1] (tested: Z-138, Maver-1, Mino, Jeko-1, Granta-519) is listed as “Z-138, Maver-1”. The IC50 in the test with Jeko-1 (264 h, 11-day treatment, N = 1, read-out: Formula B LTP IC50) turned out to be 14 nM. Moreover, the IC90 with Jeko-1 (264 h, 11-day treatment, N = 1, read-out: Formula B LTP IC90) is 149 nM. The IC50 in the test on Jeko-1 (Table 3, read-out: LTP IC50) is 5.2 nM.
Regarding `O=C(NC[C@H](O)CN1CCc2ccccc2C1)c1ccnc(NC2CCC2)c1` [Formula C], the MDM4 splicing result in test [2] is “attenuates”.
